Results: patent US9943536B2, “Reactivation of HIV-1 gene expression to treat persistent HIV infection” (UNIVERSITÉ LIBRE DE BRUXELLES, priority 2011, dated 2018)
“And” between values parts separate entries of the source, which are not always exact repeats. Equal entries are not always repeated.

How the values were obtained:
Assay type in all cases: cell-based
[1] = system: HIV-1 in HLA DR− CD25− CD69− CD4+ T cells from HIV-1-infected cART-treated patients; assay: HIV-1 recovery in resting memory (HLA DR− CD25− CD69−) CD4+ T cells from cART-treated patients; details: for concentration of viral RNA in culture supernatants: HLA DR− CD25− CD69− CD4+ T cells, six days after treatment
Procedure: Further to Table 3: Cultures of patient cells were mock-treated or treated with indicated compounds. Six days after treatment, the concentration of viral RNA in culture supernatants was determined (in copies/ml; l means below the threshold and ‘/’ indicates an untested condition). Total HIV-1 DNA is expressed as HIV-1 DNA copies/10^6 cells or as log HIV-1 DNA copies/10^6 cells.
FIG. 3. […] Cultures of resting memory CD4^+ T cells were mock-treated or treated as indicated. Six days after treatment, the concentration of viral RNA in culture supernatants was measured (in copies/ml). […] The reactivated patient cultures were classified in relevant categories where HIV-1 recovery after the combined treatment presented a higher viral production than after the individual treatment. […] The reactivated patient cultures were subdivided in two relevant categories: (b1) cultures in which HIV-1 recovery after the combined treatment was higher than after the individual treatments, (b2) and cultures in which a synergistic reactivation of viral RNA production was observed after the combined treatments.
(§1) Table 4. […] Cultures of resting memory CD4^+ T cells were mock-treated or treated with BIX-01294. Six days after treatment, the concentration of viral RNA in culture supernatants was determined in copies/ml (l indicates below the threshold).
as §1, with “FIG.” for “Table”, “BIX-01294 alone, with SAHA alone or with the combinationSAHA+BIX-01294.” for “BIX-01294.”, “(I” for “(l”
Cultures of 2.5×10^5 HLA DR^− CD 25 CD69^− CD4^+ T cells were mock-treated or treated with BIX-01294. Six days after treatment, the concentration of viral RNA in culture supernatants was determined (Table 4).

[2] = system: HIV-1 in HLA DR− CD4+ T cells from HIV-1-infected cART-treated patients; assay: HIV-1 recovery in limiting-dilution cultures of HLA DR− CD4+ T cells from cART-treated patients; details: for concentration of viral RNA in culture supernatants: limiting dilution, one line per patient
Procedure: (§2) (a) Cultures of CD8^+-depleted PBMCs were mock-treated or treated with chaetocin (90 nmol/l). Six days after treatment, the concentration of viral RNA in culture supernatants was determined. Total HIV-1 DNA is expressed as HIV-1 DNA copies/10^6 cells or as log HIV-1 DNA copies/10^6 cells (‘/’ indicates not-tested condition). (b) Limiting-dilution cultures of HLA DR^− CD4^+ T cells were mock-treated or treated with chaetocin (45 or 90 nmol/l). The concentration of viral RNA in culture supernatants was determined. The last positive dilution culture indicates the presence of at least one cell carrying replication-competent and chaetocin-responsive virus.
(§3) Cultures comprising 6.10^6 CD8^+-depleted PBMCs were mock-treated or treated with chaetocin. Six days after treatment, the concentration of viral RNA in culture supernatants was determined by the Amplicor method (Roche Diagnostics). The results are depicted in Table 1 and 2A. The percentage of reactivation was calculated on all patients reactivated. Nine out of the eighteen tested PBMC cultures reactivated HIV-1 expression in response to chaetocin treatment, while none of them did when mock-treated. Subsequently, limiting-dilution cultures of HLA DR^− CD4^+ T cells were performed and these cultures were mock-treated or treated with chaetocin. The last positive dilution culture indicates the presence of at least one cell carrying replication-competent HIV-1 virus. The concentration of viral RNA in culture supernatants was determined by the Amplicor method (Roche Diagnostics). Values are expressed in HIV-1 RNA copies/ml.

[3] = system: HIV-1 in CD8+-depleted PBMCs from HIV-1-infected cART-treated patients; assay: HIV-1 recovery in ex-vivo cultures of CD8+-depleted PBMCs from cART-treated patients; details: for concentration of viral RNA in culture supernatants: six days after treatment
Procedure: Table 1. […] Cultures of CD8^+-depleted PBMCs were mock-treated or treated with chaetocin (30, 60 or 90 nmol/l) or with the positive control. Six days after treatment, the concentration of viral RNA in culture supernatants was determined (in copies/ml; ‘l’ indicates below the threshold).
as §2, §3

[4] = one line per patient culture H19-H34 (Table 3), l = below the threshold

SMILES: COc1cc2nc(N3CCCN(C)CC3)nc(NC3CCN(Cc4ccccc4)CC3)c2cc1OC [BIX-01294]
- % of reactivation ([1]; 10 patients (Table 4)): 80%
- concentration of viral RNA in culture supernatants ([1]; one line per patient culture (Table 4), I = below the threshold): 412 copies/ml and 1 780 copies/ml and 1 360 copies/ml and 665 copies/ml and 1624 copies/ml and 1385 copies/ml and 250 copies/ml and 4292 copies/ml
- concentration of viral RNA in culture supernatants [1, 4]: 665 copies/ml and 1624 copies/ml and 1385 copies/ml and 250 copies/ml and 4292 copies/ml and 412 copies/ml and 1780 copies/ml and 1360 copies/ml
- reactivated HIV-1 expression, share of resting CD4+ T-cell cultures ([1]; cultures from HIV-1+ cART-treated patients (Table 4)): 80%
- Reactivated patients ([1]; of 10 patients (Table 4)): 8

SMILES: O=C(CCCCCCC(=O)Nc1ccccc1)NO [SAHA, suberoylanilide hydroxamic acid]
- concentration of viral RNA in culture supernatants [1, 4]: 624 copies/ml and 520 copies/ml and 252 copies/ml and 2248 copies/ml and 908 copies/ml and 952 copies/ml and 336 copies/ml and 540 copies/ml and 1480 copies/ml and 420 copies/ml and 416 copies/ml and 412 copies/ml

SMILES: CN1C(=O)[C@@]23C[C@]4([C@]56C[C@@]78SS[C@@](CO)(C(=O)N7[C@H]5Nc5ccccc56)N(C)C8=O)c5ccccc5N[C@@H]4N2C(=O)[C@]1(CO)SS3 [chaetocin]
- concentration of viral RNA in culture supernatants ([2]; chaetocin 45 nM, 1.5 × 10^6 cells): 288 copies/ml and 831 copies/ml
- concentration of viral RNA in culture supernatants ([2]; chaetocin 45 nM, 5 × 10^5 cells): 179 copies/ml and 245 copies/ml and 89 copies/ml and 97 copies/ml and 769 copies/ml
- concentration of viral RNA in culture supernatants ([2]; chaetocin 45 nM, 10^5 cells): 83 copies/ml and 238 copies/ml
- concentration of viral RNA in culture supernatants ([2]; chaetocin 45 nM, 10^6 cells): 284 copies/ml and 94 copies/ml and 292 copies/ml and 702 copies/ml
- concentration of viral RNA in culture supernatants ([2]; chaetocin 90 nM, 1.5 × 10^6 cells): 377 copies/ml and 1050 copies/ml
- concentration of viral RNA in culture supernatants ([2]; chaetocin 90 nM, 5 × 10^4 cells): 76 copies/ml
- concentration of viral RNA in culture supernatants ([2]; chaetocin 90 nM, 5 × 10^5 cells): 147 copies/ml and 118 copies/ml and 68 copies/ml and 52 copies/ml and 1043 copies/ml
- concentration of viral RNA in culture supernatants ([2]; chaetocin 90 nM, 10^5 cells): 51 copies/ml and 50 copies/ml and 47 copies/ml and 359 copies/ml
- concentration of viral RNA in culture supernatants ([2]; chaetocin 90 nM, 10^6 cells): 178 copies/ml and 131 copies/ml and 791 copies/ml
- HIV-1 recovery, share of resting CD4+ T-cell cultures ([2]; cultures from HIV-1+ cART-treated patients (Table 2b)): 86%
- concentration of viral RNA in culture supernatants [1, 4]: 832 copies/ml and 180 copies/ml and 2780 copies/ml and 1244 copies/ml and 1616 copies/ml and 2000 copies/ml and 680 copies/ml and 4944 copies/ml and 300 copies/ml and 328 copies/ml and 2456 copies/ml and 1000 copies/ml
- % of reactivation ([3]; 18 patients H1-H18, chaetocin 90 nmol/l or positive control): 50%
- concentration of viral RNA in culture supernatants ([3]; CD8+-depleted PBMCs, one line per patient culture H1-H18 (Table 3), l = below the threshold): 1825 copies/ml and 354 copies/ml and 2057 copies/ml and 2371 copies/ml and 1566 copies/ml and 797 copies/ml and 477 copies/ml and 2388 copies/ml and 467 copies/ml
- Reactivated patients ([3]; chaetocin 30 nM, of 6 patients H1-H6): 1
- concentration of viral RNA in culture supernatants ([3]; chaetocin 30 nM, one line per patient culture, I = below the threshold): 1139 copies/ml
- Reactivated patients ([3]; chaetocin 60 nM, of 6 patients H1-H6): 3
- concentration of viral RNA in culture supernatants ([3]; chaetocin 60 nM, one line per patient culture, I = below the threshold): 222 copies/ml and 452 copies/ml and 1924 copies/ml
- Reactivated patients ([3]; chaetocin 90 nM, of 6 patients H1-H6): 4
- concentration of viral RNA in culture supernatants ([3]; chaetocin 90 nM, one line per patient culture, I = below the threshold): 2371 copies/ml and 1825 copies/ml and 354 copies/ml and 2057 copies/ml
- concentration of viral RNA in culture supernatants ([3]; chaetocin 90 nmol/l, one line per patient culture H1-H18, I = below the threshold): 2371 copies/ml and 1566 copies/ml and 797 copies/ml and 477 copies/ml and 2388 copies/ml and 467 copies/ml and 1825 copies/ml and 354 copies/ml and 2057 copies/ml
- HIV-1 recovery, share of CD8+-depleted PBMCs cultures ([3]; cultures from HIV-1+ cART-treated patients (Table 2a)): 50%
- Reactivated patients ([3]; of 18 patients H1-H18, chaetocin 90 nmol/l or positive control): 9

SMILES: CC(=O)O[C@@]12C[C@@H](C)[C@@]3(O)[C@@H](C=C(CO)C[C@]4(O)C(=O)C(C)=C[C@@H]34)[C@@H]1C2(C)C [prostratin, 12-deoxyphorbol 13-acetate]
- concentration of viral RNA in culture supernatants [1, 4]: 612 copies/ml and 1380 copies/ml and 1064 copies/ml and 2508 copies/ml and 2540 copies/ml and 3532 copies/ml and 704 copies/ml and 420 copies/ml
